Reference: ChEMBL document CHEMBL1138141, “Pyridazines part 41: synthesis, antiplatelet activity and SAR of 2,4,6-substituted 5-(3-oxo-3-phenylprop-1-en-1-yl)- or 5-(3-phenylprop-2-enoyl)pyridazin-3(2H)-ones” (Bioorg Med Chem Lett, 2006)
Active and inactive are the calls of the source. No cut-off for these calls is given here.

Tests used:
[1] = molecular target: Prostaglandin G/H synthase 1 (Homo sapiens) (UniProt P23219); experiment: Inhibition of thrombin-induced platelet aggregation above 100 uM; format: functional
[2] = molecular target: Prostaglandin G/H synthase 1 (Homo sapiens) (UniProt P23219); experiment: Inhibition of thrombin-induced platelet aggregation below 100 uM; format: functional

Chain of Prostaglandin G/H synthase 1 (Homo sapiens) (P23219 whole entry): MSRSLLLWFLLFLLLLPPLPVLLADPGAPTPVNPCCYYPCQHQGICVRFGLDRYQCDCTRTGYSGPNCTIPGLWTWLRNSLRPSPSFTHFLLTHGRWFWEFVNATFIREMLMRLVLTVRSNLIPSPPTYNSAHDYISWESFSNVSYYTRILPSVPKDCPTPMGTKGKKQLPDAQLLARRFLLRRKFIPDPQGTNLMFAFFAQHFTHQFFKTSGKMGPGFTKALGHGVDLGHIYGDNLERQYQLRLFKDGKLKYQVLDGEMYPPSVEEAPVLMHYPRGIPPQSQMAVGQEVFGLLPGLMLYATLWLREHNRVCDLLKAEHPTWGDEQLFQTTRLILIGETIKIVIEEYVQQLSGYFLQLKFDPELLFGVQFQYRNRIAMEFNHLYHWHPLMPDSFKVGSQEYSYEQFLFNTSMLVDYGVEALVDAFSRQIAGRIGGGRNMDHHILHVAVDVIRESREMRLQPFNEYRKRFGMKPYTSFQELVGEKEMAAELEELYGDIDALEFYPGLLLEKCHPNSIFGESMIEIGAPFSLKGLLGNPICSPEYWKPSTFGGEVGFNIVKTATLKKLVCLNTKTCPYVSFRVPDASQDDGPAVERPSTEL

SMILES: O=C(/C=C/c1ccccc1)c1cnn(Cc2ccccc2)c(=O)c1
- Activity [1]: Active
- Activity [2]: inactive
